Measurements: US7601713B2, “Kinase inhibitors and their uses” (Rigel Pharmaceuticals, Inc., priority 2005, dated 2009)
Read-outs that look alike come from different tables or passages of the source. Each block holds one molecule with its values, some of them ahead of it.

Assays:
[1] = tested on: JAK kinases (JAK1 and JAK3); test: JAK inhibition: IL-4-stimulated CD23 upregulation in human Ramos B-cells, FACS; format: cell-based; conditions: IL-4 stimulated Ramos B-cells, read-out: IC50, inhibition of JAK kinases in cellular assay
Procedure: JAK inhibition was tested in human Ramos B-cells activated with IL-4. Twenty to 24 hours post stimulation, the cells are stained for upregulation of CD23 and analyzed by FACS. Stimulation of the B-cells with IL-4 leads to the activation of the JAK/STAT pathway through phosphorylation of the JAK kinase JAK1 and JAK3, which in turn phosphorylate and activate transcription of factor […].
For the assay, human Ramos B-cells (ATCC, Catalog No. CRL-1596) are cultured in RPMI 1640 medium (Cellgro, Catalog No. 10-040-CM) containing 10% fetal bovine serum (JRH, Catalog No. 12106-500M) according to the propagation protocol supplied with the cells, and maintained at a density of approximately 3.5×10^5 cells/ml. The day before the assay, the cells are diluted to 3.5×10^5 cells/ml to insure they are in the logarithmic growth phase. The cells are spun down, and suspended in RPMI 1640 medium containing 5% fetal bovine serum to a density of 3.5×10^4 cells/ml and aliquots dispensed into a 96-well tissue culture plate. Cells are incubated with test compound (dissolved in DMSO) or DMSO (control) for 1 hr at 37° C. and then stimulated with IL-4 (Pepotech, Catalog No. 200-04) for 20-24 hours (final concentration is 50 Units/ml). Cells are then spun down, stained with anti-CD23-PE antibody (BD Pharmigen, Catalog No. 555711) and analyzed by FACS.

Lck kinase = Lck kinase (Homo sapiens, UniProt P06239); test: Lck kinase inhibition; format: biochemical
kinase Lyn b = kinase Lyn b (Homo sapiens, UniProt P07948); test: Lyn b kinase inhibition; format: biochemical
Syk kinase = Syk kinase (Homo sapiens, UniProt P43405); test: cell-based Syk assay; conditions: read-out: IC50, inhibition of Syk kinase
tumor cell lines = conditions: cited from earlier work; for antiproliferative activity against tumor cell types: in vitro assays, variety of tumor cell lines
Axl kinase = molecular target: T1, Axl kinase (Homo sapiens, UniProt P30530); test: Phospho-Akt in-cell Western assay (Axl antibody cross-linking, Hela cells); format: cell-based; conditions: phospho-Akt readout, read-out: IC50, inhibition of Axl kinase
T1 construct: endogenous in cells; host or cells: HeLa cells
T1 sequence (P30530 26-894): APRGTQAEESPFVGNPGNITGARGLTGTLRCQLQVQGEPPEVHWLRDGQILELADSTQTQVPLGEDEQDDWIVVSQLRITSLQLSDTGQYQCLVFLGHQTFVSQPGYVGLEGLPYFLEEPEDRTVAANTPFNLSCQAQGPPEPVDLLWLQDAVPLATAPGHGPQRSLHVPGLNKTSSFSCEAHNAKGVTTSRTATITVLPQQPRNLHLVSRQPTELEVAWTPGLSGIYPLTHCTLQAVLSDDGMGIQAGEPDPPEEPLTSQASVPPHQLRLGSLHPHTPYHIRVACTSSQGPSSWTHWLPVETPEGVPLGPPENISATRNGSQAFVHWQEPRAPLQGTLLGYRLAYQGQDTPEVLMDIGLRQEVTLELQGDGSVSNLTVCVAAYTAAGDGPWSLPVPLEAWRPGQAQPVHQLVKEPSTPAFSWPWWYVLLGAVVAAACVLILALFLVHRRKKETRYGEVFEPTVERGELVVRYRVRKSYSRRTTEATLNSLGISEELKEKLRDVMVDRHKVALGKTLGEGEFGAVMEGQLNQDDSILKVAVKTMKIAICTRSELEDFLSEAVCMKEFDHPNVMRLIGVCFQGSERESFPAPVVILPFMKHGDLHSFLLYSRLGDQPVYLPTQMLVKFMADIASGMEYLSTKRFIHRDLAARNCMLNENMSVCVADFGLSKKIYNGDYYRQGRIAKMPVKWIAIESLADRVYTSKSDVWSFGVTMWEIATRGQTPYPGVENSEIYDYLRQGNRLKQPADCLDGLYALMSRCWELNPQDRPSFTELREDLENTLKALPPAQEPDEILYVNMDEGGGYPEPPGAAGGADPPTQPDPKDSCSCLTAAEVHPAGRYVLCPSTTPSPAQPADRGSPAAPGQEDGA
Summary of the method: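 HeLa cells were starved 24 h in 0.5% FCS with 500 ng/mL Axl/Fc, pretreated with compound 1 h at 37 °C, then stimulated 5 min by cross-linked anti-Axl antibodies. Phospho-Akt was detected by in-cell chemiluminescent immunoassay and normalized to crystal violet cell number at 590 nm.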

Sequence of Lck kinase (P06239 whole entry): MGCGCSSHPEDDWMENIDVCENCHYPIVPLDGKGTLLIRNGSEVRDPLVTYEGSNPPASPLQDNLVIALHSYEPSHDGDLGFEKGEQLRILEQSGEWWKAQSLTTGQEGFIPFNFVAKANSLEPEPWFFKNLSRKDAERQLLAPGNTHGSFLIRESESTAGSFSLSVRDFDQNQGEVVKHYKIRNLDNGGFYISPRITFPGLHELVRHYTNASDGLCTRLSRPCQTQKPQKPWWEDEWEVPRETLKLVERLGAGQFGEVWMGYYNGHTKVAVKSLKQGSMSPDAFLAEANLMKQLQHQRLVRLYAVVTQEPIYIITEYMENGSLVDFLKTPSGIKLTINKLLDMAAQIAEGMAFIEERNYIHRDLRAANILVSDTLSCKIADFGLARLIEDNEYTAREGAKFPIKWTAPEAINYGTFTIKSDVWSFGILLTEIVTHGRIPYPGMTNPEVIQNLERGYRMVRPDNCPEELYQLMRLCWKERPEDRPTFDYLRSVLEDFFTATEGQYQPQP
Sequence of kinase Lyn b (P07948 1-491 isoform P07948-2): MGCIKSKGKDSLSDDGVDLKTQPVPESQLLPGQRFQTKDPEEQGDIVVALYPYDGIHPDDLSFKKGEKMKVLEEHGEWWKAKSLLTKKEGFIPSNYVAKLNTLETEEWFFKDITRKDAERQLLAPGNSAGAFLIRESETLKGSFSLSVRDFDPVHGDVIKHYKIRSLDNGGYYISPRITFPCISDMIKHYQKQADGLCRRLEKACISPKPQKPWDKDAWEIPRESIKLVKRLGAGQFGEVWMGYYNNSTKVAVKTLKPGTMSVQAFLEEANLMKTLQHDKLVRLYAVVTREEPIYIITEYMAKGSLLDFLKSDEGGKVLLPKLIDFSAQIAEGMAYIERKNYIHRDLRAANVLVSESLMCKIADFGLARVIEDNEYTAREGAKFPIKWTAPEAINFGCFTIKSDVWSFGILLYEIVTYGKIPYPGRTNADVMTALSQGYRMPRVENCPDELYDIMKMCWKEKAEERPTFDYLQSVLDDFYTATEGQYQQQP

IC50 [1]: > 10 µM
IC50 (Lck kinase): < 5 µM
Compound: NC(=O)c1c[nH]c2ccc(Nc3nc(NC4C5C=CC(C5)C4C(N)=O)c4nc[nH]c4n3)cc12 (racemic) [Compound 152, Racemic-(2-exo,3-exo-)-N6-(3-aminocarbonylbicyclo[2.2. 1]hept-5-en-2-yl)-N2-(3-aminocarbonyl-1H-indol-5-yl)-1H-purine-2,6-diamine]

IC50 (kinase Lyn b): < 1 µM
Compound: NC(=O)[C@H]1[C@@H](Nc2nc(Nc3cccc(OCCN4CCOCC4)c3)nc3[nH]cnc23)[C@@H]2C=C[C@H]1C2 [Compound 113, (1S,2S,3R,4R)-N6-(3-Aminocarbonylbicyclo[2.2. 1]hept-5-en-2-yl)-N2-[3-(2-morpholin-4-yl-ethoxy)phenyl]-1H-purine-2,6-diamine]

IC50 (Lck kinase): < 5 µM
IC50 (Syk kinase): < 10 µM
Compound: Cc1cccc(Nc2nc(NC3CC4CCC3C4)c3nc[nH]c3n2)c1 (racemic) [Compound 151, Racemic-(2-exo)-N6-(bicyclo[2.2.1]hept-2-yl)-N2-(3-methyl)phenyl-1H-purine-2,6-diamine]

IC50 (kinase Lyn b): < 1 µM
Compound: Cc1ccc(Nc2nc(NC3C4C=CC(C4)C3C(N)=O)c3nc[nH]c3n2)cc1F (racemic) [Compound 134, Racemic-(2-exo,3-exo)-N6-(3-aminocarbonylbicyclo[2.2. 1]hept-5-en-2-yl)-N2-(3-fluoro-4-methy)phenyl-1H-purine-2,6-diamine]

Compound: Cc1cc(Nc2ncc(F)c(NC3C4C=CC(C4)C3C(N)=O)n2)ccc1N1CCN(C)CC1 [(1S,2S,3R,4R) diastereomer, N4-(3-aminocarbonylbicyclo [2.2.1]hept-5-en-2-yl)-5-fluoro-N2-[3-methyl-4-(4-methylpiperazin-1-yl)phenyl]-2,4-pyrimidinediamine]
IC50s against tumor cell lines (tumor cell lines; isolated stereoisomers): micromolar range

IC50 (kinase Lyn b): < 1 µM
Compound: CCOc1cccc(Nc2nc(NC3C4C=CC(C4)C3C(N)=O)c3nc[nH]c3n2)c1 (racemic) [Compound 131, Racemic-(2-exo,3-exo)-N6-(3-aminocarbonylbicyclo[2.2. 1]hept-5-en-2-yl)-N2-(3-ethoxy)phenyl-1H-purine-2,6-diamine]

IC50 [1]: < 5 µM
IC50 (Axl kinase): < 10 µM
IC50 (Syk kinase): < 5 µM
Compound: COc1cccc(Nc2nc(NC3C4CCC(C4)C3C(=O)NN)c3cc[nH]c3n2)c1 (racemic) [Compound 231, Racemic-(2-exo,3-exo)-N4-(3-hydrazidebicyclo[2.2. 1]hept-2-yl)-N2-(3-methoxyphenyl)-1H-pyrrolo[2,3-d]pyrimidine-2,4-diamine]

Compound: Cc1cc(Nc2ncc(F)c(NC3CCCC3C(N)=O)n2)ccc1N1CCN(C)CC1 [trans (1S,2S) diastereomer, N4-(2-aminocarbonylcyclopent-1-yl)-5-fluoro-N2-[4-(4-methylpiperazin-1-yl)-3-methylphenyl]-2,4-pyrimidinediamine]
antiproliferative activity against tumor cell types (tumor cell lines): relatively inactive
antiproliferative activity against tumor cell types (tumor cell lines; listed as trans(1S,2S)): relatively inactive

IC50 (kinase Lyn b): < 1 µM
Compound: COc1cccc(Nc2nc(NC3CC4CCC3C4)c3nc[nH]c3n2)c1 (racemic) [Compound 154, Racemic-(2-exo)-N6-(bicyclo[2.2.1]hept-2-yl)-N2-(3-methoxy)phenyl-1H-purine-2,6-diamine]

IC50 (kinase Lyn b): < 1 µM
Compound: CNC(=O)COc1cccc(Nc2nc(NC3C4C=CC(C4)C3C(N)=O)c3nc[nH]c3n2)c1 (racemic) [Compound 104]

IC50 [1]: < 5 µM
IC50 (Lck kinase): < 5 µM
IC50 (Syk kinase): < 10 µM
Compound: CC(C)Oc1cccc(Nc2nc(NC3CC4CCC3C4)c3nc[nH]c3n2)c1 (racemic) [Compound 153, Racemic-(2-exo)-N6-(bicyclo[2.2.1]hept-2-yl)-N2-(3-isopropoxy)phenyl-1H-purine-2,6-diamine]

IC50 (kinase Lyn b): < 1 µM
Compound: NC(=O)[C@@H]1[C@H](Nc2nc(Nc3ccc(Cc4ccncc4)cc3)nc3[nH]cnc23)[C@H]2C=C[C@@H]1C2 [Compound 148, (1R,2R,3S,4S)-N6-(3-Aminocarbonylbicyclo[2.2. 1]hept-5-en-2-yl)-N2-[4-(4-pyridinylmethyl)phenyl]-1H-purine-2,6-diamine]

IC50 (Lck kinase): < 5 µM
Compound: Cc1cccc(Nc2nc(NC3C4CCC(C4)C3C(N)=O)c3cc[nH]c3n2)c1 (racemic) [Compound 165, Racemic-(2-exo,3-exo)-N4-(3-aminocarbonylbicyclo[2.2. 1]hept-2-yl)-N2-(3-methyl)phenyl-1H-pyrrolo[2,3-d]pyrimidine-2,4-diamine]

IC50 [1]: > 10 µM
IC50 (Lck kinase): < 5 µM
Compound: NC(=O)C1C2C=CC(C2)C1Nc1nc(Nc2cccc3[nH]ccc23)nc2[nH]cnc12 (racemic) [Compound 135, Racemic-(2-exo,3-exo)-N6-(3-aminocarbonylbicyclo[2.2. 1]hept-5-en-2-yl)-N2-(1H-indol-4-yl)-1H-purine-2,6-diamine]

IC50 (kinase Lyn b): < 1 µM
Compound: NC(=O)[C@@H]1[C@H](Nc2nc(Nc3cccc(OCCN4CCOCC4)c3)nc3[nH]cnc23)[C@H]2C=C[C@@H]1C2 [Compound 112, (1R,2R,3S,4S)-N6-(3-Aminocarbonylbicyclo[2.2. 1]hept-5-en-2-yl)-N2-[3-(2-morpholin-4-yl-ethoxy)phenyl]-1H-purine-2,6-diamine]

IC50 (kinase Lyn b): < 1 µM
Compound: NC(=O)C1C2C=CC(C2)C1Nc1nc(Nc2ccc3c(c2)OCC(=O)N3)nc2[nH]cnc12 (racemic) [Compound 107, Racemic-(2-exo,3-exo)-N6-(3-aminocarbonylbicyclo[2.2. 1]hept-5-en-2-yl)-N2-(3,4-dihydro-3-oxo-2H-1,4-benzoxazin-7-yl)-1H-purine-2,6-diamine]

IC50 (kinase Lyn b): < 1 µM
Compound: NC(=O)[C@@H]1[C@H](Nc2nc(Nc3cccc(F)c3)nc3[nH]cnc23)[C@H]2C=C[C@@H]1C2 [Compound 109, (1R,2R,3S,4S)-N6-(3-Aminocarbonylbicyclo[2.2. 1]hept-5-en-2-yl)-N2-(3-fluoro)phenyl-1H-purine-2,6-diamine]

IC50 (Lck kinase): < 10 µM
IC50 (kinase Lyn b): > 10 µM
IC50 (Syk kinase): < 10 µM
Compound: COc1ccccc1Nc1nc(NC2C3C=CC(C3)C2C(N)=O)c2nc[nH]c2n1 (racemic) [Compound 136, Racemic-(2-exo,3-exo-)-N6-(3-aminocarbonylbicyclo[2.2. 1]hept-5-en-2-yl)-N2-(2-methoxy)phenyl-1H-purine-2,6-diamine]

IC50 [1]: < 10 µM
IC50 (Axl kinase): > 10 µM
IC50 (Syk kinase): > 10 µM
Compound: NC(=O)C1C2CC(C1Nc1nc(Nc3ccc(N4CCOCC4)cc3)nc3[nH]ccc13)C1ON=C(c3ccccc3)C21 (racemic) [Compound 219, Racemic-(5-exo,6-exo)-N4-(4,7-methano-1,2-benzisoxazol-3a,4,5,6,7,7a-hexahydro-3-phenyl-5-aminocarbonyl-6-yl)-N2-[4-(4-morpholinyl)phenyl]-1H-pyrrolo[2,3-d]pyrimidine-2,4-diamine]

Compound: Cc1cc(Nc2ncc(F)c(NC3C4C=CC(C4)C3C(N)=O)n2)ccc1N1CCN(C)CC1 (racemic) [cis exo-exo racemate, N4-(3-aminocarbonylbicyclo [2.2.1]hept-5-en-2-yl)-5-fluoro-N2-[3-methyl-4-(4-methylpiperazin-1-yl)phenyl]-2,4-pyrimidinediamine]
potency of exo-exo racemate relative to endo-endo racemate (tumor cell lines; all cell lines tested): approximately twenty-fold
antiproliferative activity against tumor cell types (tumor cell lines): exhibit antiproliferative activity
